Results as given in patent US9180163B2, “Parstatin peptides” (priority 2009, dated 2015).
Like-named read-outs stand apart in the source and are kept apart here.

Experiments:
[1] = system: renal ischemia-reperfusion injury in Wistar rats
Protocol: Pathogen-free male Wistar rats weighting 250-300 g were used and treated in compliance with the “Guide for the Care and Use of Laboratory Animals” published by the US National Institutes of Health (NIH Publication NO. 85-23, revised 1996).
Rats were anesthetized with intramuscular injection of ketamine (25 mg/Kg) and xylazine hydrochloride (10 mg/Kg). After a midline laparotomy, the renal pedicles were identified and bilaterally occluded for a period of 45 min using nontraumatic microaneurysm clamps. The presence of ischemia was visually confirmed by observing blanching of the kidneys. Sham-operated rats were subjected to identical surgical procedures without causing renal ischemia by application of microaneurysm clamps. At the end of ischemia period the clamps were removed and renal reperfusion was established. All rats were killed 4 hours after the initiation of reperfusion.
Urine was collected during reperfusion, and at the end of the experiments blood samples were taken and analyzed for biochemical markers of renal impairment. Serum creatinine levels were measured as an indicator of glomerular function. Urine concentrations of Na^+ were determined and used in conjunction with serum Na^+ concentrations to estimate FENa which was used as a sensitive indicator of tubular function.
For histological assessment of renal ischemia-reperfusion injury, the rat kidneys were removed 4 hours after reperfusion, fixed in 10% formalin, embedded in paraffin, sectioned (5-μm thicknesses), and stained with haematoxylin and eosin. Tubular injury was identified by the presence of any of flattened tubular cells, loss of brush border, and cast formation. Ten high-powered fields (hpf's; ×400 magnification) from the outer medulla and corticomedullary junction were examined from each animal to determine the percentage of tubules showing evidence of injury and scored according to the following scale: 0, no injury; 1, less than 10%; 2, 10% to 25%; 3, 26% to 75%; 4, greater than 75%. The 10 scores were averaged to give the tubular injury score for each specimen.

[2] = system: myocardial ischemia-reperfusion injury in Sprague Dawley rats; conditions: for reduction in infarct size: 1 μg/Kg IV bolus
Protocol: Parstatin (1-41) was used in an in vivo rat model of cardiac ischemia and reperfusion, and in an in vitro isolated rat heart model of ischemia-reperfusion injury.
For in vivo infarct size studies, rats were anesthetized with pentobarbital sodium (50 mg/Kg) and heparin (1000 IU/Kg) and underwent 30 min of regional ischemia followed by 120 min of reperfusion. Parstatin (1-41) was administered-intravenously over 1 min starting 15 min prior to ischemia, or 15 min after the onset of ischemia, or 10 seconds after the onset of reperfusion in separate series of experiments (n=6/group).
To induce ischemia, ligature was positioned around the left main coronary artery and threaded through a plastic snare to permit reversible occlusion of the coronary artery. Coronary occlusion was induced by clamping the snare onto the heart and reperfusion was achieved by releasing the snare. At the end of reperfusion, the coronary artery was re-occluded and the risk zone was delineated by perfusion of 0.5% Evans' blue into the aortic cannula. Hearts were sectioned and incubated in 1% triphenyltetrazolium chloride in phosphate buffer for 15 min to define white necrotic tissue when fixed in 10% formalin for 24 h. Area at risk (AAR) and infarct-to-risk rations were determined by computerized planimetry using J-Image v.i.6 software (NIH, Bethesda, Mass.).
For in vivo infarct size/ischemia-reperfusion studies, rats were anesthetized with pentobarbital sodium (50 mg/Kg) and heparin (1000 IU/Kg) and underwent 30 min of regional ischemia followed by 120 min of reperfusion. Human hydrophobic parstatin (1-26) fragment was administered intravenously over 1 min at one of three time points: 1) starting 15 min prior to ischemia, 2) 15 min after the onset of ischemia, or 3) 10 seconds after the onset of reperfusion in a separate series of experiments (n=6/group).
Ischemia was induced by placement of a ligature around the left main coronary artery which was threaded through a plastic snare to permit reversible occlusion of the coronary artery. Coronary occlusion was induced by clamping the snare onto the heart and reperfusion was achieved by releasing the snare. At the end of reperfusion, the coronary artery was re-occluded and the risk zone was delineated by perfusion 0.5% Evans' blue into the aortic cannula.
Hearts were sectioned and incubated in 1% triphenyltetrazolium chloride in phosphate buffer for 15 min to define white necrotic tissue when fixed in 10% formalin for 24 h. Area at risk (AAR) and infarct-to-risk rations were determined by computerized planimetry using J-Image v.i.6 software (NIH, Bethesda, Mass.). The principal endpoint of these studies was infarct size expressed as a percentage of the area at risk.

[3] = system: corneal neovascularization in Sprague-Dawley rats; experiment: chemical burn-induced corneal neovascularization, image analysis; assay type: in vivo, rat; conditions: 2×50 μg subconjunctival, day 7
Source text: Parstatin (1-41), hydrophobic parstatin (1-26) fragment and hydrophilic parstatin (24-41) fragment were used in an in vivo rat model of corneal neovascularization. In particular, chemical burn-induced corneal trauma was used to generate corneal neovascularization as a preclinical disease model simulating a plethora of corneal diseases associated with abnormal formation of new blood vessels. The cornea is normally an avascular tissue that can be stimulated to undergo pathological neoangiogenesis in response to mechanical or chemical injuries, pterygium, herpetic keratitis, etc. In this model, an inflammatory response is considered an important prerequisite for neovascularization. This model is widely accepted and is one of the most extensively studied models, which provides an in vivo environment to study this complex process with convenient access to the corneal tissue and the highly visible developing vasculature.
Pathogen-free male Sprague-Dawley rats (250-300 gr) were treated in accordance with the Association for Research in Vision and Ophthalmology Statement for the Use of Animals in Ophthalmic and Vision Research and the guidelines of the Animal Care and Use Committee at local University Medical School. […] The corneal neovascularization was assessed using a semiautomatic program, which was developed in MATLAB 7.5. […]

[4] = system: HUVEC cells; experiment: Matrigel capillary tube-like formation; assay type: cell-based, human; conditions: 5% FBS, 18 h; parstatin (1-41) 0.3 to 10 μM, other peptides 10 μM
Protocol: Primary human umbilical vein endothelial cells (HUVEC cells) were obtained from freshly delivered umbilical cords from caesarean births and were grown in M199 medium with 20% fetal bovine serum (FBS) supplemented with endothelial cell growth supplement and heparin. One of the most specific tests for angiogenesis is the measurement of the ability of endothelial cells to form capillary-like structures (i.e., tube formation). Tube formation is a multi-step process involving cell adhesion, migration and differentiation. Tube formation can be enhanced by use of Matrigel or fibrin clots to coat plastic culture dishes and it is an accepted model of angiogenesis.
Matrigel™ (Becton Dickinson Labware, N.J., USA) is a mixture of basement membrane components extracted from the Englebreth-Holm-Swarm tumor. […] Matrigel™ (250 μl) was added to each well of a 24-well plate and allowed to polymerize. A suspension of 40,000 HUVEC cells in M199 medium containing 5% FBS was added into each well coated with Matrigel™.
Cells were treated with increasing concentrations of human parstatin (1-41), scrambled parstatin, or parstatin (24-41) fragment. After 18 hours of incubation, the medium was removed, and the cells were fixed and stained, and tube-like structures were quantitated.

[5] = system: HUVEC cells; experiment: MTT cell proliferation assay; assay type: cell-based, human; conditions: 10 μM
Protocol: Cell proliferation was evaluated using a 3-(4,5-[…])-2,5-diphenyltetrazolium bromide (MTT, Sigma-Aldrich, St. Louis, Mo.) assay. Endothelial cells (10,000/well) were seeded in 24-well tissue culture plates and incubated with growth medium for 24 h. Cells were then treated with the vehicle or the indicated peptides in medium containing 5% FBS for 1 to 3 days. After 24, 48, or 72 hours, MTT solution (5 mg/ml) was added to each well and incubated for 3 h at 37° C. The blue formazan crystals were solubilized by addition of DMSO and absorbance at 450 nm was recorded using a 96-well plate reader.

[6] = parstatin (1-26) IV 10 seconds after initiation of reperfusion

“MGPRRLLLVAACFSLCGPLLSARTRA (listed as Homo sapiens) [parstatin (1-26)]” was tested, and the “histological scoring of renal injury” value ([1]; 10 μg/Kg) was “significantly reduced”, the “reduction of FENa” value ([1]; 10 μg/Kg IV pre-ischemic) was 66% and the “reduction of serum creatinine” value ([1]; 10 μg/Kg IV pre-ischemic) was 27%. For the same sequence, the “reduction of FENa” value [1, 6] was 72%, the “reduction of serum creatinine” value [1, 6] was 30% and the “reduction in infarct size” value ([2]; 10 seconds after initiation of reperfusion) was 62%. The “reduction in infarct size” value ([2]; 15 min after the onset of ischemia) was 73%, the “infarct sparing effect with L-NMA” value ([2]; 1 μg/Kg, L-NMA 15 μg/Kg) was “abolished” and the “infarct size in the presence of pertussis toxin” value ([2]; 1 μg/Kg, pertussis toxin 25 μg/Kg 48 hours prior) was “unable to reduce infarct size”. For the same sequence, the “cardioprotective effects with wortmannin” value ([2]; 1 μg/Kg, wortmannin 15 μg/Kg) was “abrogated”, the “reduction in infarct size with ODQ” value ([2]; 1 μg/kg, ODQ 1 mg/kg) was “abolished” and the “reduction in infarct size compared with control” value ([2]; 10 μg/Kg IV 15 min prior to ischemia) was 78%. The infarct size ([2]; 10 μg/Kg IV 15 min prior to ischemia, 30 min ischemia, 120 min reperfusion) was 13±1 % of the area at risk, the “cardioprotective effects with 5-HD” value ([2]; 5-HD 10 mg/Kg) was “blocked” and the “cardioprotective effects with HMR 1098” value ([2]; HMR 1098 6 mg/kg) was “blocked”. The cardioprotection with atractyloside ([2]; atractyloside 3 mg/Kg) was “partial blockage”, the “cardioprotective effect with glibenclamide” value ([2]; glibenclamide 3 mg/kg) was “completely diminished” and the “baseline hemodynamics (heart rate, blood pressures) between groups” value ([2]; rat, in vivo) was “no significant differences”. The “inhibition of corneal neovascularization” value [3] was 50%.

“TRARRPESKATNATLDPR (listed as Homo sapiens) [parstatin (24-41), 24-41 (18 amino acids) of human parstatin, hydrophilic fragment]” was tested, and the “tube formation on Matrigel” value [4] was “did not affect”, the HUVEC cell proliferation [5] was “without effect” and the “inhibition of corneal neovascularization” value [3] was 60%.
